Source: US6322789A, “HLA-restricted hepatitis B virus CTL epitopes” (Epimmune, Inc., priority 1995, dated 2001)
No end group written: not given here.

What was measured:
[1] = tested on: Jurkat A2.1/K^b target cells; test: CTL induction from splenocytes of mice primed subcutaneously with purified HBV in IFA (Example II); assay type: cell-based, A2.1/K^b transgenic mice (effector cells); settings: for ability to induce in vitro CTL from splenocytes of HBV-primed mice: FIGS. 3 and 4
ovalbumin-specific CTL = settings: cited from earlier work
[2] = tested on: Jurkat A2/K^b target cells; test: In vivo HBc 18-27-specific CTL priming by CTL and T helper epitopes (Example IV); design: species or system HLA-A2.1/K^b transgenic mice; settings: for HBc18-27-specific CTL response: 100 μg subcutaneously, transgenic mice; for magnitude of HBc18-27-specific CTL activity relative to other immunogens: comparison in words; for requirement of prior T helper priming for CTL priming: without previous priming with 875.23 in CFA
Protocol: Animals were primed subcutaneously with 100 μg of 875.23 (T helper epitope) in Complete Freund's Adjuvant (CFA) followed 9 days later (subcutaneously) with […]. Splenocytes were removed 3 weeks later, cultured for 6 days in the presence of LPS-blasts that had been incubated with the CTL epitope (875.15), 100 μg for 2 hrs before being washed and added to the culture as a source of antigen presenting cells. The presence of HBc 18-27 (875.15)-specific CTL was determined using a standard 6 hr […] release assay with Jurkat A2.1/K^b cells as targets.
This example describes experiments which define the relative in vivo HBV-specific CTL priming efficiency of peptides expressing HBV CTL epitopes alone, CTL epitopes mixed with peptides containing T helper epitopes or CTL epitopes physically linked to T helper epitopes.
Nine days later each of the following peptides were injected subcutaneously into two unprimed and two helper-primed mice, 100 μg/mouse in incomplete Freund's adjuvant (IFA).
Three weeks after priming with the CTL epitope, splenocytes were in vitro restimulated with LPS blasts coated with HBc 18-27 (coating was achieved by incubating 30×10^6 LPS blasts with 100 μg of HBc18-27 in one ml of medium; after 1-2 hr at 37° C., the cells were washed). After 6 days, effector cells were assayed for lytic activity against ^51 Cr labelled Jurkat A2 /K^b target cells in the presence or absence of HBc18-27.

[3] = tested on: Jurkat A2.1/K^b target cells; test: CTL lysis after restimulation of splenocytes from mice primed with HBV-loaded spleen cells (Example I); assay type: cell-based, A2.1/K^b transgenic mice (effector cells); settings: for representation of CTL epitopes: conclusion of Example I, FIGS. 1 and 2; for CTL lysis of Jurkat A2/K^b target cells: individual peptides, FIG. 1 panels E through H
[4] = tested on: B10.D2 fibroblasts in the presence of NP 148-155 peptide; test: CTL immunogenicity of modifications and formulations of PR8-NP 148-155 (Table I); assay type: in vivo, Balb/c mouse; settings: in words
Protocol: Three weeks after immunization splenocytes were removed and stimulated in vitro with the flu 147-155 peptide. CTL activity was assayed one week later using ^51 Cr-labeled B10.D2 fibroblasts as targets. Target cells were tested in the absence of antigen, in the presence of Flu 147-155 peptide or following infection with influenza PR8 virus.
^b = CTL immunogenicity of various modifications and formulations of NP
result obtained from spleen cells derived from a single Balb/c mouse and
# the effector to target ratio (E:T) required to induce 40% antigen
specific lysis of ^51 Cr labeled B10D2 target cells in the presence of
ND148-155 peptide; +++ E:T below 10:1; ++ E + T between 10 + 1 and […]

[5] = tested on: Jurkat A2-1/Kb target cells; Jy target cells; Jy cells transfected with HBV core; design: species or system HLA-A2-1/kb transgenic mice; settings: mouse, in vivo, sc
[6] = listed as linked peptides without spacer

MGLKFRQLLW [Peptide 883.03]
recognition of truncation peptides by CTL raised against the larger peptide [1]: recognized by the CTL raised against the larger epitopes | ability to induce in vitro CTL from splenocytes of HBV-primed mice [1]: clearly able to induce in vitro CTL

ovalbumin: ovalbumin (OVA) in IFA
generation of CTL (ovalbumin-specific CTL; i.v. or i.p.): generally does not lead to the generation of CTL | ovalbumin-specific CTL response (ovalbumin-specific CTL; in IFA subcutaneously): induces an ovalbumin-specific CTL response in mice

Thr-Pro-Pro-Ala-Tyr-Arg-Pro-Pro-Asn-Ala-Pro-Ile-Leu (TPPAYRPPNAPIL) [Peptide 875.23]
HBc18-27-specific CTL response [2]: no HBc18-27-specific CTL response is detected | HBc18-27-specific CTL response ([2]; listed as T helper peptide): did not induce HBc-specific CTL

TPPAYRPPNAPILAAAFLPSDFFPSV-NH2 [Peptide 902.02]
magnitude of HBc18-27-specific CTL activity relative to other immunogens [2]: greatest HBc18-27 (875.15)-specific CTL activity was detected | magnitude of HBc18-27-specific CTL activity relative to other immunogens ([2]; listed as T helper and CTL HBV peptides were linked by a Ala-Ala-Ala spacer): specific CTL activity greater than induction of specific CTL activity with the linked peptides without spacer | magnitude of HBc18-27-specific CTL activity relative to other immunogens ([2]; listed as T helper and CTL epitopes via an alanine-alanine-alanine spacer): specific CTL activity greater than that detected by linking the T helper and CTL determinants alone | requirement of prior T helper priming for CTL priming [2]: previous priming of helper T cells was not required

Thr-Asn-Met-Gly-Leu-Lys-Phe-Arg-Gln-Leu-Leu-Trp-Phe-His-Ile-Ser-Cys-Leu-Thr-Phe [Peptide 802.03]
CTL response and its MHC class I mediation [3]: induces a CTL response which is mediated by at least the MHC class I molecule HLA-A2.1 | representation of CTL epitopes [3]: defined as containing CTL epitopes | representation of CTL epitopes ([3]; listed as HBc 91-110): clearly represent CTL epitopes | CTL lysis of Jurkat A2/K^b target cells [3]: induced CTL lysis of Jurkat A2 /K^b target cells above background | ability to induce in vitro CTL from splenocytes of HBV-primed mice [1]: clearly able to induce in vitro CTL

Asn-Cys-Thr-Cys-Ile-Pro-Ile-Pro-Ser-Ser-Trp-Ala-Phe-Gly-Lys-Phe-Leu-Trp-Glu-Trp [Peptide 799.08]
CTL response and its MHC class I mediation [3]: induces a CTL response which is mediated by at least the MHC class I molecule HLA-A2 | representation of CTL epitopes [3]: clearly represent CTL epitopes | CTL lysis of Jurkat A2/K^b target cells [3]: induced CTL lysis of Jurkat A2 /K^b target cells above background

NMGLKFRQLL [Peptide 883.02]
recognition of truncation peptides by CTL raised against the larger peptide [1]: recognized by the CTL raised against the larger epitopes | ability to induce in vitro CTL from splenocytes of HBV-primed mice [1]: clearly able to induce in vitro CTL

(PAM)2 KSS-ISQAVHAAHAEINE-AAA-TYQRTRALV ({(PAM)2}-KSSISQAVHAAHAEINEAAATYQRTRALV) [Peptide 932.05]
comparison of constructs and formulations [4]: superior when injected in saline or Alum compared to all of the other combinations

(PAM)2 KSSISQAVHAAHAEINE-TYQRTRALV ({(PAM)2}-KSSISQAVHAAHAEINETYQRTRALV) [Peptide 932.04]
comparison of constructs and formulations [4]: superior when injected in saline or Alum compared to all of the other combinations

Ac-Gln-Tyr-Ile-Lys-Ala-Asn-Ser-Lys-Phe-Ile-Gly-Ile-Thr-Glu-Ala-Ala-Ala-Phe-Leu-Pro-Ser-Asp-Phe-Phe-Pro-Ser-Val-OH (Ac-QYIKANSKFIGITEAAAFLPSDFFPSV-OH) [Peptide 934.02]
CTL response specific for HBc 18-27 [5]: induction of a CTL response specific for HBc 18-27

LSPTVWLSVIWMMWYWGPSL [Peptide 799.10]
representation of CTL epitopes [3]: defined as containing CTL epitopes | representation of CTL epitopes ([3]; listed as HBenv 349-368): clearly represent CTL epitopes | CTL lysis of Jurkat A2/K^b target cells [3]: induced CTL lysis of Jurkat A2 /K^b target cells above background | ability to induce in vitro CTL from splenocytes of HBV-primed mice [1]: clearly able to induce in vitro CTL

LSPTVWLSVI [Peptide 884.02]
recognition of truncation peptides by CTL raised against the larger peptide [1]: recognized by the CTL raised against the larger epitopes | ability to induce in vitro CTL from splenocytes of HBV-primed mice [1]: clearly able to induce in vitro CTL

TPPAYRPPNAPILFLPSDFFPSV-NH2 [Peptide 902.01]
HBc18-27-specific CTL response [2]: HBc-specific (875.15) CTL activity was detected | HBc18-27-specific CTL response [2, 6]: induce specific CTL priming of animals in all animals studied | animals with HBc18-27-specific CTL response ([2]; 100 μg/mouse in IFA subcutaneously): 100% | magnitude of HBc18-27-specific CTL activity relative to other immunogens ([2]; listed as T helper epitope linked to the CTL epitope): greater than that detected when the epitopes were administered non-linked | magnitude of HBc18-27-specific CTL activity relative to other immunogens [2, 6]: at levels which were greater than when the CTL peptide and T helper peptide were administered unlinked | requirement of prior T helper priming for CTL priming [2]: previous priming of helper T cells was not required

ISQAVHAAHAEINE-AAA-TYQRTRALV (ISQAVHAAHAEINEAAATYQRTRALV) [Peptide 932.03]
comparison of constructs and formulations [4]: superior to mixing the T helper+CTL (i.e., non-linked) and worked well in IFA, but not well in saline or Alum

ISQAVHAAHAEINE-TYQRTRALV (ISQAVHAAHAEINETYQRTRALV) [Peptide 932.02]
comparison of constructs and formulations [4]: superior to mixing the T helper+CTL (i.e., non-linked) and worked well in IFA, but not well in saline or Alum
